We go through 1 compound from patent publication US20250136649A1, “HONEY TRUFFLE SWEETENER (HTS) VARIANTS” (MYCOTECHNOLOGY, INC., priority 2023, published 2025).

For experiment [1], the system named is perception of the flavor. Put plainly: Tasting of HTS flavor modifying compositions in a mock beverage matrix. In kind it is in vivo, human. As to conditions: pH about 3, 0.25% w/w lemon/lime flavor, erythritol 13.30% w/w, HTS 0.004 mg/mL. The protocol:
HTS (0.004 mg/mL) and sucrose (10% w/w concentration) were added to a mock beverage matrix (citric acid, a flavor and carbonation). […] HTS and sucrose were added to hit a target of 10% w/w sucrose equivalent sweetness. The HTS/sucrose mixture was compared to an unsweetened control, an unsweetened control+0.004 mg/mL HTS, and a sucrose sweetened control (10% w/w concentration of sucrose).
HTS (0.004 mg/mL) and erythritol (13.3% w/w concentration) were added to a mock beverage matrix (citric acid, a flavor, and carbonation). […] HTS and erythritol were added to hit a target of 10% w/w sucrose equivalent sweetness. The HTS/erythritol mixture was compared to an unsweetened control, an unsweetened control+0.004 mg/mL HTS, and an erythritol sweetened control (13.3% w/w concentration).
HTS (0.004 mg/mL) and sucralose (0.0387% w/w concentration) were added to a mock beverage matrix (citric acid, a flavor, and carbonation). […] HTS and sucralose were added to hit a target of 10% w/w sucrose equivalent sweetness. The HTS/sucralose mixture was compared to an unsweetened control, an unsweetened control+0.004 mg/mL HTS, and a sucralose sweetened control (0.0387% w/w concentration).
HTS (0.004 mg/mL) and stevia (0.0395% w/w concentration) were added to a mock beverage matrix (citric acid, a flavor, and carbonation). […] HTS and stevia were added to hit a target of 10% w/w sucrose equivalent sweetness. […]

In experiment [2] the test system is sweetness and flavor perception. Put plainly: Tasting of HTS sweetener blends in citric acid solution, lemon/lime soda, almond milk, chocolate spread. The experiment is classed as in vivo, human. The protocol:
Sucrose is the standard for sweetness intensity perception in the food and beverage industry. […] With regard to the following Examples 18-38, sucrose equivalent (SE) values of non-sucrose sweeteners were calculated from Dubois et al. (1991) and cross referenced with other studies (Wee, M., Tan, V., & Forde, C. (2018). A Comparison of Psychophysical Dose-Response Behaviour across 16 Sweeteners. Nutrients, 10 (11), 1632).
DE Walters, FT Orthoefer, GE DuBois, pp. 261-276. Washington, DC: Am. Chem. Soc).
An HTS sweetness concentration response curve was developed. These values were used to determine approximate sucrose equivalents for the following blending examples (Examples 18-37).
HTS ((0.0 mg/mL, 0.007 mg/mL, 0.015 mg/mL and 0.035 mg/mL) and sucrose (8% w/w, 6% w/w, 4% w/w, and 2% w/w (respectively)) were added to a citric acid solution. The sweetener mixture was compared to a control with only sucrose added to the matrix. The sweetener mix was expected to be as sweet as or sweeter than the sucrose control for this matrix. Of total perceived sweetness intensity in each of the experimental samples in Table 11, 75% comes from sucrose and 25% comes from HTS, 50% comes from sucrose and 50% comes from HTS, 25% comes from sucrose and 75% comes from HTS, respectively.
HTS ((0.0 mg/mL, 0.008 mg/mL, 0.023 mg/mL and 0.064 mg/mL) and sucrose (10% w/w, 7.5% w/w, 5% w/w, and 2.5% w/w (respectively)) were added to a lemon/lime soda. The sweetener mixture was compared to a control with only sucrose added to the matrix. The sweetener mix was expected to be as sweet as or sweeter than the sucrose control for this matrix. Of total perceived sweetness intensity in each of the experimental samples in Table 12, 75% comes from sucrose and 25% comes from HTS, 50% comes from sucrose and 50% comes from HTS, 25% comes from sucrose and 75% comes from HTS, respectively.
HTS ((0.0 mg/mL, 0.005 mg/mL, 0.007 mg/mL and 0.010 mg/mL) and sucrose (4% w/w, 3.0% w/w, 2% w/w, and 1.0% w/w (respectively)) were added to an unsweetened almond milk. The sweetener mixture was compared to a control with only sucrose added to the matrix. The sweetener mix was expected to be as sweet as or sweeter than the control for this matrix. Of total perceived sweetness intensity in each of the experimental samples in Table 13, 75% comes from sucrose and 25% comes from HTS, 50% comes from sucrose and 50% comes from HTS, 25% comes from sucrose and 75% comes from HTS, respectively.
HTS ((0.0 mg/mL, 0.008 mg/mL, 0.023 mg/mL and 0.064 mg/mL) and sucrose (45% w/w, 33.8% w/w, 23% w/w, and 11.3% w/w (respectively)) were added to a chocolate spread. The sweetener mixture was compared to a control with only sucrose added to the matrix. The sweetener mix was expected to be as sweet as or sweeter than the control for this matrix. Of total perceived sweetness intensity in each of the experimental samples in Table 14, 75% comes from sucrose and 25% comes from HTS, 50% comes from sucrose and 50% comes from HTS, 25% comes from sucrose and 75% comes from HTS, respectively.
HTS ((0.0 mg/mL, 0.007 mg/mL, 0.015 mg/mL and 0.035 mg/mL) and erythritol (11.43% w/w, 8.57% w/w, 5.71% w/w, and 2.86% w/w (respectively)) were added to a citric acid solution. The sweetener mixture was compared to a control with only erythritol added to the matrix. The sweetener mix was expected to be as sweet as or sweeter than the control for this matrix. Of total perceived sweetness intensity in each of the experimental samples in Table 15, 75% comes from erythritol and 25% comes from HTS, 50% comes from erythritol and 50% comes from HTS, 25% comes from erythritol and 75% comes from HTS, respectively.

In experiment [3] the test system is sweet taste. As to conditions: linear potency curve similar to sucrose (DuBois 1991); cited from earlier work.

As for `OC[C@@H](O)[C@@H](O)CO` [Erythritol, erythritol], the Observations result in experiment [1] is “More sour, bitter, mineral, mouth drying,”; in experiment [2] (chocolate spread, erythritol w/w / HTS mg/mL: control 45%/0.0, 75/25 33.8%/0.008, 50/50 23%/0.023, 25/75 11.3%/0.064), “Brief initial sweetness, mouth cooling, cocoa”; in experiment [2] (citric acid solution, erythritol w/w / HTS mg/mL: control 11.43%/0, 75/25 8.57%/0.007, 50/50 5.71%/0.015, 25/75 2.86%/0.035), “Reduced sour intensity compared to sucrose”; in experiment [2] (lemon/lime soda, erythritol w/w / HTS mg/mL: control 13.30%/0.0, 75/25 9.31%/0.008, 50/50 6.90%/0.023, 25/75 3.10%/0.064) it was “Reduced citrus flavor intensity. Strong mouth”. Further, in experiment [3], the “potency curve multiplier relative to sucrose” value is given as 0.7 ×.
